Structures are written as SMILES. Some results are limits rather than exact numbers.

Tyrosine-protein kinase JAK2 [Y1007F,Y1008F], sequence (O60674 whole entry Y1007F/Y1008F): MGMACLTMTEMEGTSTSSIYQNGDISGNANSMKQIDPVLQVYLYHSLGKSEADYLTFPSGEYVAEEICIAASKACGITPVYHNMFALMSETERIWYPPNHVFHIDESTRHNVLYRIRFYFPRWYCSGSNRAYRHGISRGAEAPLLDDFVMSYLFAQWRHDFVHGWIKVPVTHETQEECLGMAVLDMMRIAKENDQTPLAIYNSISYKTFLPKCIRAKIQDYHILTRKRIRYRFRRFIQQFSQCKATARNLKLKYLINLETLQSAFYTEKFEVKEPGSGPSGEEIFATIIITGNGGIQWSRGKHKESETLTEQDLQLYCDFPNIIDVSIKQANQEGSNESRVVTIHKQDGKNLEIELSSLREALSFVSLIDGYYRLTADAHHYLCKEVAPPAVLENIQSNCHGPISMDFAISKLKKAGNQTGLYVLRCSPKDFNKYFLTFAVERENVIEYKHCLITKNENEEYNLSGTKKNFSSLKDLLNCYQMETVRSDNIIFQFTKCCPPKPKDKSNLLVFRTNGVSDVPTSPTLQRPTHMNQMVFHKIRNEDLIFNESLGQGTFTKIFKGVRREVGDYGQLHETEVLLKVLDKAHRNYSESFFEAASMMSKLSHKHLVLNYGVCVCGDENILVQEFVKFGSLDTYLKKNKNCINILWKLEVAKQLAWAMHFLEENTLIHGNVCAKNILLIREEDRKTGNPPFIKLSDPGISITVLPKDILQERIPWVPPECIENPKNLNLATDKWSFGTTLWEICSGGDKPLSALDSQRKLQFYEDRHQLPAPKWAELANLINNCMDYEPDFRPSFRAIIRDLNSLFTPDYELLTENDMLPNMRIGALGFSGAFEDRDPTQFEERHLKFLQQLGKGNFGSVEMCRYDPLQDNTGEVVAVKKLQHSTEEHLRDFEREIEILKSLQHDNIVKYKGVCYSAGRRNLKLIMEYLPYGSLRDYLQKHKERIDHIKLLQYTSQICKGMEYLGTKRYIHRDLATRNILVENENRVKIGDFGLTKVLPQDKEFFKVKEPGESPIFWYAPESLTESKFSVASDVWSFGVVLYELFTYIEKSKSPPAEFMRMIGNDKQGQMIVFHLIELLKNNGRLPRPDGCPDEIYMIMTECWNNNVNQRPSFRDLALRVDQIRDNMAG

The experiment concerns the target Tyrosine-protein kinase JAK2 [Y1007F,Y1008F] (Homo sapiens, UniProt O60674, Y1007F/Y1008F). The experiment can be described thus: JAK2 Binding Assay. As for the experimental part:
Streptavidin-coated magnetic beads were treated with biotinylated small molecule ligands for 30 minutes at room temperature to generate affinity resins for kinase assays. The liganded beads were blocked with excess biotin and washed with blocking buffer (SeaBlock (Pierce), 1% BSA, 0.05% Tween 20, 1 mmol/L DTT) to remove unbound ligand and to reduce nonspecific phage binding. Binding reactions were assembled by combining kinases, liganded affinity beads, and test compounds in 1× binding buffer (1×PBS, 0.05% Tween 20, 0.1% BSA, 1 mmol/L DTT). Test compound was prepared as 111× stocks in 100% DMSO and directly diluted into the assay wells. All reactions were performed in polypropylene 384-well plates in a final volume of 0.02 mL. The assay plates were incubated at room temperature with shaking for 1 hour and the affinity beads were washed with wash buffer (1×PBS, 0.05% Tween 20). The beads were then re-suspended in elution buffer (1×PBS, 0.05% Tween 20, 0.5 μmol/L non-biotinylated affinity ligand) and incubated at room temperature with shaking for 30 minutes. The kinase concentration in the eluate was measured by qPCR.
What is called Kd is a measure of binding affinity in units of concentration. A low value points to a tighter complex. As to `CC(=O)Nc1cc(Oc2ccc3nc(Nc4cc(C(C)(C)C)n(C[C@H]5C[C@@H](O)C5)n4)n(C)c3c2)ccn1` [US11691963, Example I-28], the Kd was under 10 nM. For the molecule `CC(=O)Nc1cc(Oc2ccc3nc(Nc4cc5n(n4)CCCC5(C)C)n(C)c3n2)ccn1` [US11691963, Example I-42], the equilibrium dissociation constant (Kd) was under 10 nM.

On to `CC(=O)Nc1cc(Oc2cnc3nc(Nc4cc(C(C)(C)C)n([C@H]5C[C@H](O)C5)n4)n(C)c3c2)ccn1` [US11691963, Example I-115], for which the dissociation constant Kd was under 10 nM.

Molecule `CC(=O)Nc1cc(Oc2cnc3nc(Nc4cc(C(C)(C)C)n([C@H]5C[C@@H](O)C5)n4)n(C)c3c2)ccn1` [US11691963, Example I-116] came in with a Kd of under 10 nM.

These data come from BindingDB's records for patent US11691963 (Ajax Therapeutics, 2023).
